In publication PMC7704979, “Effect of the versatile bifunctional chelator AAZTA^5 on the radiometal labelling properties and the in vitro performance of a gastrin releasing peptide receptor antagonist” (EJNMMI Radiopharmacy and Chemistry, 2020):

Experiments:
GRPr = biological target: T1, GRPr (Homo sapiens, UniProt P30550); assay: Saturation binding studies on intact PC3 cells; conditions: for Bmax (concentration of the radiotracer required to saturate the receptors): intact PC3 cells, 4 °C, 120 min, normalized for 1 × 10^6 cells per well
T1 construct: For receptor saturation analysis, PC3 cells were seeded at a density of 0.8–1 million cells per well; endogenous in cells; host or cells: PC3 (human prostate adenocarcinoma cell line), intact cells
T1 sequence (P30550 whole entry): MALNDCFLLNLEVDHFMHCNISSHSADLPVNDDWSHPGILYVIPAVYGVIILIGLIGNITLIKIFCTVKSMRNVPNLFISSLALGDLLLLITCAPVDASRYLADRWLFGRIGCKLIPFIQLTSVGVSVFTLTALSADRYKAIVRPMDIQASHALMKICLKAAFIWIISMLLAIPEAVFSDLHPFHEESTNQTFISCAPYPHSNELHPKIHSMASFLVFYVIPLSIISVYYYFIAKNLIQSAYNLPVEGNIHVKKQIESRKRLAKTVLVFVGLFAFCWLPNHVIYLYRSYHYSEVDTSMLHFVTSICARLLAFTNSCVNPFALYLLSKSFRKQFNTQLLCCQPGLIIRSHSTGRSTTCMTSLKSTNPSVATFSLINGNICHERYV
Experimental: For receptor saturation analysis, PC3 cells were seeded at a density of 0.8–1 million cells per well in 6-well plates and incubated overnight with medium (DMEM: F12 (1:1) containing 1% FBS, 100 U/mL penicillin and 100 μg/mL streptomycin). The next day, the medium was removed, the cells washed and incubated for 1 h at 37 °C with fresh medium. […] After the addition of the radioligands, the cells were incubated for 120 min at 4 °C. Non-specific binding was determined in the presence of Tyr^4-Bombesin at a final concentration of 1 μM. Then the cells were washed twice with ice-cold PBS, followed by solubilization with 1 N NaOH and the cell-associated radioactivity was measured using a gamma-counter. Specific binding was plotted against the total molar concentration of the added radiotracer. The Kd values and the concentration of the radiotracer required to saturate the receptors (Bmax) were determined by nonlinear regression using GraphPad (Prism 8 Graph Pad Software, San Diego, CA). For all the cell studies the values are normalized for 1 × 10^6 cells per well and all data are from two independent experiments with triplicates in each experiment.

PC3 cells [1] = assay: Internalization studies in PC3 cells; type: cell-based, human; conditions: 37 °C; for specifically internalized activity / total cell associated uptake: 6 h; for total cell associated uptake: % of applied radioactivity
Experimental: For internalization experiments, PC3 cells were seeded into 6-well plates and treated as described above. […] To determine nonspecific membrane binding and internalization, excess of Tyr^4-Bombesin (final concentration 1 μΜ) was added to selected wells. At each time point, the internalization was stopped by removing the medium and washing the cells twice with ice-cold PBS. To remove the receptor-bound radioligand, an acid wash was carried out twice with a 0.1 M glycine buffer pH 2.8 for 5 min on ice. Finally, cells were solubilized with 1 N NaOH. The radioactivity of the culture medium, the receptor-bound, and the internalized fractions were measured in a γ-counter.

PC3 cells [2] = assay: In vitro therapy study, trypan blue exclusion viability of PC3 cells; type: cell-based, human; conditions: monotherapy (rapamycin 10 nM or ^177Lu-labelled LF1 1.85 MBq), 72 h
Experimental: For the in vitro therapy studies, PC3 cells were seeded at a density of 50,000–100,000 cells (depending on the investigating time point: 100000, 75,000 and 50,000 cells for 24, 48, 72 h respectively) in 12-well plates and incubated overnight with cultivation medium at 37 °C and 5% CO2. The next day, the medium was removed, the cells washed, and culture medium containing either rapamycin (10 nM, dissolved in dimethyl sulfoxide (DMSO)) or DMSO (control, the final concentration of DMSO in the culture medium was 0.5%) was added. The plates were incubated at 37 °C and 5% CO2 for a period of 6 h. Afterwards, the medium containing rapamycin or DMSO was removed and fresh medium was added in each well. […] The viability of the cells was accessed by the trypan blue exclusion assay after incubation at 37 °C and 5% CO2 for 24, 48 and 72 h. The experiment was performed twice in triplicate.

SMILES: CC(C)C[C@H](NC(=O)CC(O)[C@H](CC(C)C)NC(=O)[C@H](Cc1c[nH]cn1)NC(=O)CNC(=O)[C@@H](NC(=O)[C@H](C)NC(=O)[C@H](Cc1c[nH]c2ccccc12)NC(=O)[C@H](CCC(N)=O)NC(=O)[C@@H](Cc1ccccc1)NC(=O)CN1CCC(NC(=O)CCCCC2(N(CC(=O)O)CC(=O)O)CN(CC(=O)O)CCN(CC(=O)O)C2)CC1)C(C)C)C(N)=O (some centres unmarked) [^68Ga-labelled LF1, metal not drawn]
- Bmax (concentration of the radiotracer required to saturate the receptors) (GRPr; listed as 68/natGa-LF1): 0.4 ± 0.02 nM
- factor of lower affinity compared to ^111/natIn-LF1 (GRPr; ratio of Kd values, PC3 cells): ~3
- internalized activity (PC3 cells [1]; 4 h): 2.8 ± 0.5%

SMILES: CC(C)C[C@H](NC(=O)CC(O)[C@H](CC(C)C)NC(=O)[C@H](Cc1c[nH]cn1)NC(=O)CNC(=O)[C@@H](NC(=O)[C@H](C)NC(=O)[C@H](Cc1c[nH]c2ccccc12)NC(=O)[C@H](CCC(N)=O)NC(=O)[C@@H](Cc1ccccc1)NC(=O)CN1CCC(NC(=O)CCCCC2(N(CC(=O)O)CC(=O)O)CN(CC(=O)O)CCN(CC(=O)O)C2)CC1)C(C)C)C(N)=O (some centres unmarked) [^111In-labelled LF1, metal not drawn]
- Bmax (concentration of the radiotracer required to saturate the receptors) (GRPr; listed as 111/natIn-LF1): 0.6 ± 0.06 nM
- specifically internalized activity (PC3 cells [1]): 9.2 ± 0.5%
- total cell associated uptake (PC3 cells [1]): 38.3 ± 2.5%

SMILES: CC(C)C[C@H](NC(=O)CC(O)[C@H](CC(C)C)NC(=O)[C@H](Cc1c[nH]cn1)NC(=O)CNC(=O)[C@@H](NC(=O)[C@H](C)NC(=O)[C@H](Cc1c[nH]c2ccccc12)NC(=O)[C@H](CCC(N)=O)NC(=O)[C@@H](Cc1ccccc1)NC(=O)CN1CCC(NC(=O)CN2CCN(CC(=O)O)CCN(CC(=O)O)CCN(CC(=O)O)CC2)CC1)C(C)C)C(N)=O (some centres unmarked) [^177/natLu-RM2, metal not drawn, reference compound]
- Bmax (concentration of the radiotracer required to saturate the receptors) (GRPr): 0.8 ± 0.03 nM

SMILES: CC(C)C[C@H](NC(=O)CC(O)[C@H](CC(C)C)NC(=O)[C@H](Cc1c[nH]cn1)NC(=O)CNC(=O)[C@@H](NC(=O)[C@H](C)NC(=O)[C@H](Cc1c[nH]c2ccccc12)NC(=O)[C@H](CCC(N)=O)NC(=O)[C@@H](Cc1ccccc1)NC(=O)CN1CCC(NC(=O)CCCCC2(N(CC(=O)O)CC(=O)O)CN(CC(=O)O)CCN(CC(=O)O)C2)CC1)C(C)C)C(N)=O (some centres unmarked) [^177Lu-labelled LF1, metal not drawn]
- Bmax (concentration of the radiotracer required to saturate the receptors) (GRPr; listed as 177/natLu-LF1): 0.8 ± 0.05 nM
- specifically internalized activity (PC3 cells [1]): 8.9 ± 0.8%
- total cell associated uptake (PC3 cells [1]): 34.5 ± 2.3%

SMILES: CO[C@H]1C[C@@H]2CC[C@@H](C)[C@@](O)(O2)C(=O)C(=O)N2CCCC[C@H]2C(=O)O[C@H]([C@H](C)C[C@@H]2CC[C@@H](O)[C@H](OC)C2)CC(=O)[C@H](C)/C=C(\C)[C@@H](O)[C@@H](OC)C(=O)[C@H](C)C[C@H](C)/C=C/C=C/C=C/1C [rapamycin]
- cell viability (PC3 cells [2]): approx. 50%
